Series [1] concerns HeLa cells. Description: Cytotoxicity in HeLa cells by LDH release. The class given is cell-based. The method, then: (A) HeLa cells were incubated for 6 h in the presence of 10 μM of poropeptide FITC-R8-Bax or of control peptide R8-Bax [Scr] (“scramble” version of the poropeptide), and then observed under an epifluorescence microscope. […] Scale 10 μm. […] HeLa cells were treated with increasing concentrations (5, 10, 25 and 50 μM) of peptide […] or […]. The cytotoxicity was determined by measuring the cellular release of lactate dehydrogenase (LDH) after 3, 6 or 24 h of incubation (n=4). […] The results are given in means and standard deviations. […] (25 μM). The cytotoxicity was determined by measuring the cellular release of lactate dehydrogenase (LDH) after 3, 6 or 24 h of incubation in the presence of 100 μM of zVAD.fmk or of buffer alone (‘DMSO’). The results are given as means and standard deviations. (D) Death rate (apoptosis/necrosis) of HeLa cells treated with poropeptide R8-Bax. The type of cell death was determined 24 h after transfection by observation of cell permeability to propidium iodide (necrosis) or of nuclear morphology after DNA staining with Hoechst 33342 (apoptosis). The green cells (expressing GFP) were visualized by epifluorescence microscopy. Approximately 300 cells were counted per experiment. The results are a mean of three independent experiments (the standard deviation is also represented).
In general terms: LDH leaks from cells whose membrane has failed.

For the next series, the system named is HT-1080 cells. Briefly: Cell death of HT-1080 cells expressing GFP fused to Bax membrane insertion fragments. The class given is cell-based, human. The following applies: zVAD.fmk 100 μM. The method, then: The various constructs were transfected into human cells cultured in vitro (HT-1080 and SK-MEL-28), and then the subcellular localization and the cytotoxicity induced by the Bax membrane insertion fragments fused to GFP were determined.
FIG. 5A gives the death rate (apoptosis/necrosis) of HT-1080 cells expressing GFP alone or as a fusion with various membrane insertion fragments of the Bax death protein. The cells were treated (+) or not (−) with the general caspase inhibitor zVAD.fmk (100 μM). Cell death was quantified 24 h after transfection by counting the number of green cells (expressing GFP) under an epifluorescence microscope. The type of cell death (apoptosis and necrosis) was determined through the membrane permeability to propidium iodide (necrosis) and the nuclear morphology (condensed or fragmented nuclei) after staining with Hoechst 33342 (apoptosis). […] The results represent the mean values (with the standard deviations) of the three experiments.
In this experiment, the cell death was quantified using the Annexin-V-Cyanine 3 test by flow cytometry 24 h after transient transfection of the cells with the plasmids of interest.

For series [2], the system named is MEF-DKO murine fibroblasts. Briefly: Apoptosis of wild-type MEF and Bax/Bak-deficient MEF-DKO fibroblasts (Annexin V-Cy3, flow cytometry). The class given is cell-based. The source says: The graph (FIG. 6A) corresponds to a time course of cell death (quantified by flow cytometry by means of the Annexin V-Cy3 test) of MEF wild-type murine fibro-blasts compared with MEF-DKO murine fibroblasts.
Background: In flow cytometry, cells or beads pass a laser one at a time.

Series [3] has as its system HeLa cells. Description: Internalization of fluorescent peptides by HeLa cells (epifluorescence microscopy). The class given is cell-based. The procedure: The poropeptide of sequence SEQ ID No. 1, comprising a polyarginine N-terminal extension (R8) separated by a glycine residue, was used. A fluorescein isothiocyanate (FITC) group was added in the C-terminal position so as to allow its visualization by epifluorescence microscopy. The R8-Scr-FITC peptide is a “scramble” sequence of the sequence present in the R8-Bax [106-134]-FITC peptide, i.e. a control sequence in which the amino acids (their order in the sequence) have been mixed-up.
(A) HeLa cells were incubated for 6 h in the presence of 10 μM of poropeptide FITC-R8-Bax or of control peptide R8-Bax [Scr] (“scramble” version of the poropeptide), and then observed under an epifluorescence microscope. […] Scale 10 μm. […] The cytotoxicity was determined by measuring the cellular release of lactate dehydrogenase (LDH) after 3, 6 or 24 h of incubation (n=4). […] The cytotoxicity was determined by measuring the cellular release of lactate dehydrogenase (LDH) after 3, 6 or 24 h of incubation in the presence of 100 μM of zVAD.fmk or of buffer alone (‘DMSO’). […] The type of cell death was determined 24 h after transfection by observation of cell permeability to propidium iodide (necrosis) or of nuclear morphology after DNA staining with Hoechst 33342 (apoptosis). […] Approximately 300 cells were counted per experiment. […]

Series [4] has as its system mitochondria isolated from rat liver. Briefly: Swelling and depolarization of mitochondria isolated from rat liver. The format is biochemical. The procedure: Poropeptide-Bax (106-134) induces swelling of the mitochondria (DD50=1.68±0.39 μM) and a drop in their transmembrane potential (SD50=3.98±0.57 μM). These two parameters were measured using mitochondria isolated from rat liver, incubated in the presence of various concentrations of poropeptide-Bax (106-134) (NT=not treated).

For the next series, the system named is Zebrafish eggs. Description: Microinjection into zebrafish eggs (mortality, malformations). The class given is in vivo, Danio rerio. The source says:
Poropeptide-Bax was microinjected in vivo. The zebrafish (Danio rerio) model was used because (i) the apoptotic machinery is conserved between human cells and fish cells; (ii) the egg corresponds to an integrated cell system compared with isolated mitochondria; (iii) zebrafish eggs can be easily injected routinely.
(A) Zebrafish eggs were microinjected at the 1-2 cell(s) stage with increasing concentrations of poro-peptide-Bax, of Bax-BH3 peptide or with ultrapure water ('mock'). A concentration of 100 μM inside the microinjection capillary corresponds to approximately […] molecules of peptide per egg. […] The data shown are representative of 2 independent experiments giving the same results. (B) Embryonic morphology 24 h after microinjection (100 μM of peptide).

The next series has as its system isolated mitochondria. Description: Cytochrome c release from isolated mitochondria (Western blotting of supernatant). The class given is biochemical. The conditions noted are these: for incubation time at which cytochrome c is released: 10 μM. The procedure:
The ex cellulo activity of poropeptide-Bax (106-134) was tested by determining its ability to promote the release of cytochrome c from the intermembrane space of isolated mitochondria. The results obtained are shown by FIG. 9 (A).
The peptide is incubated with the mitochondria for 5, 15, 30 or 60 min, and the mitochondrial release of cytochrome c into the supernatant (SN) is measured by Western blotting. The mitochondrial fractions (Mito) are calibrated using an antibody directed against the HSP70 or ATPase (subunit 6) mitochondrial proteins. With poropeptide-Bax (106-134), cytochrome c is released from the intermembrane space of the mitochondrion at 10 μM and in 5 min of incubation. No release is observed when an artificial antimicrobial peptide (KLAK) of sequence SEQ ID No. 2 KLAKLAKKLAKLAK is used.

In series [5] the test system is SK-MEL-28 human melanoma cells. Briefly: Cell viability after microinjection into SK-MEL-28 melanoma cells. The format is cell-based. The following applies: SK-MEL-28, 12 h after microinjection; for cell death / viability after microinjection: versus control. The procedure:
Poropeptide-Bax was then mixed with a solution of dextran-fluorescein (so as to allow its visualization by epifluorescence microscopy), and then microinjected into SK-MEL-28 human melanoma cells. Cell viability was then monitored and quantified 12 hours after microinjection.
(A) Micrographs showing SK-MEL-28 human melanoma cells injected with Dextran-FITC fluorescent tracer alone (‘mock’) or mixed with poropeptide-Bax. The cells were photographed 12 h after microinjection. […] Magnification×800. (B) Cell viability after microinjection of poropeptide-Bax or of Bax-BH3, KLAK or R8 peptide. The cells microinjected were visualized by means of the Dextran-FITC tracer. […] The data shown are representative of 2 independent experiments giving the same results.

Read-outs that look alike come from different tables or passages of the source. Where a SMILES comes first, the peptide text is derived from it. Where no end group is shown, it is not given here. The star is where a group is joined. Cbz = O=C(OCc1ccccc1)*; CH2F = FC*

Consider 6 compounds from US20120289472A1, “MOLECULES CAPABLE OF INDUCING CELL DEATH BY TARGETING THE MITOCHONDRIA AND APPLICATIONS THEREOF” (priority 2009, published 2012).

As for `COC(=O)C[C@H](NC(=O)[C@H](C)NC(=O)[C@@H](NC(=O)OCc1ccccc1)C(C)C)C(=O)CF` [zVAD.fmk, reference compound] (Cbz-Val-Ala-Asp(OMe)-CH2F), the “effect of caspase inhibitor on cell death induced by poropeptide R8-Bax [106-134] (LDH release)” value with HeLa cells [1] (HeLa, zVAD.fmk 100 μM, poropeptide 25 μM, 3, 6 or 24 h) is reported as “reduces cell death”. In addition, the “effect of caspase inhibitor on apoptosis caused by Bax membrane insertion fragments” value with HT-1080 cells is “blocking of the apoptosis”.
As for `CN[C@@H]1C[C@H]2O[C@@](C)([C@@H]1OC)n1c3ccccc3c3c4c(c5c6ccccc6n2c5c31)C(=O)NC4` [staurosporine], the “apoptosis induced in MEF-DKO cells” value in series [2] was “resistant”.
Regarding “R8-Bax [106-134]: poropeptide of SEQ ID No. 1 with polyarginine N-terminal extension (R8) separated by a glycine residue, FITC group added (RRRRRRRRGNWGRVVALFYFASKLVLKALCTKVPELIR; also: FITC group added, position not given here; UniProt Q07812 106-134, looked up, fragment)”, in the series with HeLa cells [3] (HeLa cells in culture in vitro), the time to internalization result was “in less than one hour”. The “cytoplasmic labeling of cells” value with HeLa cells [3] (HeLa, 10 μM, 6 h) is “strong cytoplasmic labeling”. Besides, the “cytotoxicity by cellular release of lactate dehydrogenase (LDH)” value in the series with HeLa cells [1] (HeLa, 5, 10, 25 and 50 μM, 3, 6 or 24 h) was “loss of cell viability which is dose-dependent and incubation time-dependent”.
Turning to “H-NWGRVVALFYFASKLVLKALSTKVPELIR-OH [poropeptide-Bax (106-134)]”, the EC50 in series [4] (read-out: drop in transmembrane potential (SD50)) worked out at 3980 ± 570 nM. Moreover, in series [4] (read-out: swelling of the mitochondria (DD50)), the EC50 was 1680 ± 390 nM. For the same compound, the embryonic morphology entry in the series on Zebrafish eggs (24 h after microinjection, 100 μM of peptide, compared with BH3 peptide group) was “Severe malformations”. For the same compound, the “cytotoxic effects after introduction into zebrafish eggs” value in the series on Zebrafish eggs (increasing concentrations, microinjection at 1-2 cell stage) was “dose-dependent cytotoxic effects”. For the same compound, in the series with isolated mitochondria, the “minimum concentration for which cytochrome c release is observed” value was determined as 10 µM and the “incubation time at which cytochrome c is released” value was determined as 5 min. The “incubation time at which cytochrome c is released” value in the series with isolated mitochondria (listed as Poropeptide-Bax (106-134)) is given as not above 5 min. Besides, in series [5], the “cell morphology after microinjection” value is on record as “characteristic morphological manifestations of apoptosis” and the “cell death / viability after microinjection” value (from here on “cell death / viability”) is listed as “substantial cell death”.
For the compound “KLAKLAKKLAKLAK [artificial antimicrobial peptide, reference compound]”, the “cytochrome c release from intermembrane space” value in the series on isolated mitochondria (incubation 5-60 min) is on record as “No release”. In series [5], the “cell death / viability” value is recorded as “no significant effect”.
For “RRRRRRRR [R8, control peptide, a polyarginine intracellular transduction motif, reference compound]”, the “cell death / viability” value in series [5] is reported as “viability rates comparable to the control”.
